# Data reported in patent US7351546B2, “Flow cytometric, whole blood dendritic cell immune function assay” (Becton, Dickinson and Company, priority 1998, dated 2008).
# Entries after “also recorded” stand apart in the source; their conditions may differ.
# Assays:
# Assay type in all cases: cell-based, human
# CD11c^−CD123^+ DCs = settings: CD11c−CD123+ subset; whole blood
# Protocol: (§1) Venous blood of normal donors was collected in sodium heparin […]® tubes. For activation with LPS, the blood was stimulated with 1 μg/mL LPS. […] PMA was then added at 5 ng/mL and ionomycin at 1 μg/mL. For activation by CD40 crosslinking, 50 μL CD40-coated polystyrene beads was added to 1 mL whole blood. All samples were incubated for four hours at 37° C. in a humidified incubator with 5% CO2.
# (§2) For detection of intracellular cytokines, activation, as above, was performed in the presence additionally of Brefeldin A (BFA) at 10 μg/mL. Control (resting) aliquots were incubated with BFA alone.
# (§3) Cell preparation was done at room temperature (RT), and all incubation steps were performed in the dark.
# (§4) For staining, 1 mL of sample (activated or resting blood control) was added to a cocktail of dendritic cell-distinguishing antibodies (20 μL lineage cocktail 1-FITC, 10 μL HLA-DR PerCP, 5 μL CD11c APC; reagent volumes per 50 μL blood) in a 50 mL polypropylene centrifuge tube. The blood was incubated in the presence of the fluorophore-conjugated antibodies for 15 min. After incubation, 40 mL FACS® Lysing Solution was added and the tube incubated for a further 10 min. The cells were then collected by centrifugation for 10 min at 500×g, and the pellet gently broken off for further processing. Next, 10 mL FACS® Permeabilizing Solution was added and the cells were incubated for 10 min. […]
# CD11c^+CD123^low DCs = settings: CD11c+ subset; whole blood; activator 4 hours at 37° C. with Brefeldin A
# Protocol: as §1, §2, §3, §4
# CD11c^+ DCs = test: Cytokine kinetic assay in LPS activated CD11c+ DCs; settings: 1 μg/ml LPS, time course 0 to 8 hours
# Protocol: The time course of LPS incubation was 0 to 8 hours. Intracellular cytokine and CD80 expression is measured as PE mean fluorescence intensity (MFI).
# Whole blood was stimulated with 1 μg/ml LPS and incubated in polypropylene tubes (12×75 mm) at 37° C. in a humidified atmosphere containing 5% CO2. Aliquots were processed, essentially as set forth in Examples 1 and 2 above, every hour from 0 to 8 hrs post stimulation. One hour prior to each sample harvest, BFA was added at 10 μg/mL.
# monocytes = settings: activated whole blood with BFA
# Protocol: The cytokine expression of monocytes was evaluated in some of the same samples. Monocytes were identified based on their scatter characteristics, their bright lin 1 FITC, anti-HLA-DR PerCP and CD11c APC staining. […] Intracellular protein secretion is evaluated as PE mean fluorescence intensity (MFI).
# CD11c^− DCs = settings: CD11c− subset; whole blood; activator 4 hours at 37° C. without Brefeldin A
# Protocol: as §1
# For detection of changes in surface antigen expression, samples were incubated with DC activator, as above, without the further addition of BFA. Control (resting) aliquots were incubated with neither BFA nor activator.
# Cell preparation was done at room temperature (RT) and all incubation steps were performed in the dark.
# For staining, 150 μL of sample (activated or resting blood control) was added to a cocktail of monoclonal antibodies in a staining tube.
# After incubation, 3 mL of FACS® Lysing Solution was added and the tube incubated for 10 min at RT. The lysed cells were centrifuged for 5 min at 500×g and subsequently washed with 3 mL buffer (DPBS 1×, 0.5% fetal calf serum). The cell pellet was resuspended in 250 μL buffer and immediately acquired on a flow cytometer. If data acquisition was delayed, the cells were maintained at 4° C. for up to one hour.
# The samples as described above were acquired on a FACSCalibur™ dual laser flow cytometer (BDIS, San Jose, Calif.). […]
substance,measurement,setting,value
Lipopolysaccharide [LPS],production of any of the tested cytokines,CD11c^−CD123^+ DCs,absence of detectable cytokine production; also recorded: fail to respond
same,"IL-12 expression (intracellular, MFI)",CD11c^+CD123^low DCs,trace levels
same,order of cytokine production (kinetics of the response),CD11c^+ DCs,"TNFα is produced first, followed by IL-1β and IL-6"
same,time of activation after which CD80 is intensely upregulated,CD11c^+ DCs,about 4 hours
same,cytokine expression of monocytes compared with CD11c+ DCs (PE MFI),monocytes,higher levels; also recorded: much more potently
same,CD80 change in surface expression (ratio of MFI activated versus control),CD11c^− DCs,upregulation; also recorded: strongest signal
same,CD86 change in surface expression (ratio of MFI activated versus control),CD11c^− DCs,upregulation
